Consider six compounds from patent publication US5679648A, “Methods for the treatment and prevention of fungal infections by administration of 3'-deoxypurine nucleosides” (The University Hospital, priority 1994, dated 1997).

SMILES strings stand for the structures. Read-outs that look alike come from different tables or passages of the source.

For series [1], the system named is Candida albicans. The series is described as follows: Mortality in Candida albicans infected mice. The format is in vivo. To be noted: ICR mice, 10^6 cfu C. albicans; for Survival After 25 Days: 10 days i.p.: 3'-deoxyadenosine 1.5, deoxycoformycin 0.4, amphotericin B 1.0 mg/kg/day, n=10, control 40%; for Survival After 15 Days: second experiment, 10 days i.p., same doses, n=8, control 0%. As for the experimental part: Halen Sprague Dawley ICR mice were injected is with approximately 10^6 cfu of Candida albicans. Twenty-four hours after injection, mice were treated for 10 days with the indicated agents: 3'-deoxyadenosine (Sigma Chemical; St. Louis, Mo.) at 1.5 mg/kg/day i.p., deoxycoformycin (Sigma Chemical; St. Louis, Mo.) at 0.4 mg/kg/day i.p., amphotericin B (Sigma Chemical; St. Louis, Mo.) at 1.0 mg/kg/day i.p. Survival after 25 days is shown in Tables 2 and 3.

Series [2] relates to Candida albicans. The series is described as follows: Time to reach LD50 in Candida albicans infected mice. Type of series: in vivo. To be noted: ICR mice, 10^6 cfu C. albicans; 10 days i.p.: 3'-deoxyadenosine 1.5, deoxycoformycin 0.4, amphotericin B 1.0 mg/kg/day; control 6. As for the experimental part:
Halen Sprague Dawley ICR mice were injected with approximately 10^6 cfu Candida albicans and treated for 10 days with the following agents: 3'-deoxyadenosine (Sigma Chemical; St. Louis, Mo.) at 1.5 mg/kg/day i.p., deoxycoformycin (Sigma Chemical; St. Louis, Mo.) at 0.4 mg/kg/day i.p., amphotericin B (Sigma Chemical; St. Louis, Mo.) at 1.0 mg/kg/day i.p. Time in days to reach LD50 is shown in Table 4.

A further series has as its system MOLT-4. The series is described as follows: Cytotoxicity to neoplastic cells in tissue culture. Type of series: cell-based. The settings on record: MOLT-4 (TdT-positive), in the presence of coformycin; read-out: cytotoxic IC50. As for the experimental part: (§1) Cell lines were maintained in FCS/DMEM (GIBCO/BRL; Grand Island, N.Y.) at 37° C. with 5% CO2 and treated with cordycepin, coformycin or cordycepin plus coformycin, or remain untreated as controls. In the presence of coformycin, cordycepin was specifically cytotoxic at IC50 of less than 0.5 μM for the TdT-positive cells NALM-6, HPB-ALL, MOLT-4, CEM and 8402 cells. […] The earliest manifestations of cytotoxic damage by cordycepin in TdT (terminal deoxynudeotidyl tranferase)-positive cells was the emergence of classic features of apoptosis such as membrane blebbing, volume loss, chromatin clumping and inter-nucleosomal DNA digestion into 180 base pair (bp) multiples. In contrast, the cytotoxic damage seen when TdT-negative cells are exposed to high levels (greater than 5.0 μM) of cordycepin is associated with random DNA breakdown and necrosis. Since apoptosis in normal TdT-positive thymocytes is stimulated by protein kinase A (PK-A) activity, and inhibited by protein kinase C (PK-C) activity, PK-A and PK-C activities were measured in TdT-positive and TdT-negative cell lines after exposure to cordycepin.

The subject of the next series is NALM-6. The series is described as follows: Cytotoxicity to neoplastic cells in tissue culture. Type of series: cell-based. The settings on record: NALM-6 (TdT-positive), in the presence of coformycin; read-out: cytotoxic IC50. As for the experimental part:
as §1

In a further series the test system is CEM. Briefly: Cytotoxicity to neoplastic cells in tissue culture. Type of series: cell-based. The settings on record: CEM (TdT-positive), in the presence of coformycin; read-out: cytotoxic IC50. As for the experimental part: as §1
A further series has as its system 8402 cells. The series is described as follows: Cytotoxicity to neoplastic cells in tissue culture. Type of series: cell-based. The settings on record: 8402 (TdT-positive), in the presence of coformycin; read-out: cytotoxic IC50. As for the experimental part:
as §1

In another series the test system is HPB-ALL. The series is described as follows: Cytotoxicity to neoplastic cells in tissue culture. Type of series: cell-based. The settings on record: HPB-ALL (TdT-positive), in the presence of coformycin; read-out: cytotoxic IC50. As for the experimental part: as §1
For another series, the system named is protein kinase A (PK-A). Briefly: PK-A activity in TdT-positive and TdT-negative cell lines after exposure. Type of series: cell-based. As for the experimental part:
(§2) Cell lines were maintained in FCS/DMEM (GIBCO/BRL; Grand Island, N.Y.) at 37° C. with 5% CO2 and treated with cordycepin, coformycin or cordycepin plus coformycin, or remain untreated as controls. […] Since apoptosis in normal TdT-positive thymocytes is stimulated by protein kinase A (PK-A) activity, and inhibited by protein kinase C (PK-C) activity, PK-A and PK-C activities were measured in TdT-positive and TdT-negative cell lines after exposure to cordycepin.

The subject of another series is C. albicans. The series is described as follows: MIC of 3'-deoxynucleosides in cell cultures (microtiter plates, 24 hours). Type of series: cell-based. The settings on record: Candida albicans. As to the method: (§3) Cell cultures of various organisms were established in microtiter plates and maintained for a period of 24 hours after the addition of a 3'-deoxynucleoside (3'-dA, 3'-dG, 3'-dC, 3'-dU) (Calbiochem; San Diego, Calif.; Fluka Chemical; Ronkonkoma, N.Y.; Pharmacia Biotech; Piscataway, N.J.) or amphotericin B in μg/ml (Sigma Chemical; St. Louis, Mo.) as control.

A further series has as its system Rhizopus. The description is as above. Type of series: cell-based. As for the experimental part:
as §3

For the next series, the system named is A. fumigatus. The description is as above. To be noted: Aspergillus fumigatus. The format is cell-based. As to the method: as §3
A further series deals with C. neoformans. The description is as above. The format is cell-based. The settings on record: Cryptococcus neoformans. As for the experimental part:
as §3

The next series relates to C. tropicalis. The description is as above. The format is cell-based. To be noted: Candida tropicalis. As to the method: as §3
The test system of another series is protein kinase C (PK-C). Briefly: PK-C activity in TdT-positive and TdT-negative cell lines after exposure. The format is cell-based. As to the method: as §2
Where [3] appears, read: C. albicans, 24 hours, read-out: MIC.
Setting [4] is: A. fumigatus, 24 hours, read-out: MIC.
Setting [5] is: C. neoformans, 24 hours, read-out: MIC.
[6] abbreviates: C. tropicalis, 24 hours, read-out: MIC.

For orientation: IC50 means the concentration needed to halve the response being measured. The MIC is the smallest concentration in the dilution series that meets the test's criterion for growth inhibition. Regarding `Nc1ncnc2c1ncn2[C@@H]1O[C@H](CO)C[C@H]1O` [3'-dA, 3'-deoxyadenosine], the “Survival After 25 Days” value in the series on Candida albicans [1] is on record as 30%. In addition, the “Survival After 15 Days” value in the series on Candida albicans [1] was 37.5%. For the same compound, the “Days to Reach LD50” value with Candida albicans [2] is recorded as 9.5 days. Moreover, the IC50 with MOLT-4, in the series on NALM-6, in the series with CEM, in the series with 8402 cells and in the series with HPB-ALL was less than 500 nM each time. The PK-A activity change result with protein kinase A (PK-A) (TdT-negative cells) was “unchanged”. Besides, the PK-A activity increase with protein kinase A (PK-A) (TdT-positive cells, within 2 hours of exposure) is 8-10 fold. Also, the MIC in the series with C. albicans (setting [3]) was 20 µM; with Rhizopus (24 hours, read-out: MIC), greater than 20 µM; in the series on A. fumigatus (setting [4]) it was 5 µM; with C. neoformans (setting [5]), 20 µM; in the series on C. tropicalis (setting [6]), 20 µM. Further, the PK-C activity change result with protein kinase C (PK-C) (TdT-negative cells) and in the series on protein kinase C (PK-C) (TdT-positive cells) was “unchanged” each time.

`Nc1ccn([C@@H]2O[C@H](CO)C[C@H]2O)c(=O)n1` [3'-dC]: the minimum inhibitory concentration (MIC) in the series with C. albicans (setting [3]) is greater than 20 µM; in the series with Rhizopus (24 hours, read-out: MIC), greater than 20 µM; with A. fumigatus (setting [4]) it was 20 µM; with C. neoformans (setting [5]), greater than 20 µM; with C. tropicalis (setting [6]), greater than 20 µM.

Take `Nc1nc2c(ncn2[C@@H]2O[C@H](CO)C[C@H]2O)c(=O)[nH]1` [3'-dG]: the MIC in the series on C. albicans (setting [3]) was greater than 20 µM; in the series with Rhizopus (24 hours, read-out: MIC) it was greater than 20 µM; in the series with A. fumigatus (setting [4]), greater than 20 µM; with C. neoformans (setting [5]), greater than 20 µM; in the series on C. tropicalis (setting [6]), greater than 20 µM.

As for `O=c1ccn([C@@H]2O[C@H](CO)C[C@H]2O)c(=O)[nH]1` [3'-dU], the MIC with C. albicans (setting [3]) was greater than 20 µM; in the series on Rhizopus (24 hours, read-out: MIC), greater than 20 µM; in the series with A. fumigatus (setting [4]), greater than 20 µM; in the series on C. neoformans (setting [5]), greater than 20 µM; in the series with C. tropicalis (setting [6]), greater than 20 µM.

For `C[C@@H]1[C@H](O)[C@@H](C)/C=C/C=C/C=C/C=C/C=C/C=C/C=C/[C@H](O[C@@H]2O[C@H](C)[C@@H](O)[C@H](N)[C@@H]2O)C[C@@H]2O[C@](O)(C[C@@H](O)C[C@@H](O)[C@H](O)CC[C@@H](O)C[C@@H](O)CC(=O)O[C@H]1C)C[C@H](O)[C@H]2C(=O)O` [Amphotericin B, amphotericin B], in the series on Candida albicans [1], the “Survival After 25 Days” value was 90%. Besides, the “Survival After 15 Days” value with Candida albicans [1] was determined as 50.0%. Further, the “Days to Reach LD50” value in the series with Candida albicans [2] is recorded as greater than 30 days. Also, the MIC in the series with C. albicans (24 h) was less than 0.6 µg/mL; with Rhizopus (24 h) it was 2.5 µg/mL; in the series with A. fumigatus (24 h) it was 1.25 µg/mL; with C. neoformans (24 h), 2.5 µg/mL; in the series with C. tropicalis (24 h), 1.25 µg/mL.

For `OC[C@H]1O[C@@H](n2cnc3c2NC=NC[C@H]3O)C[C@@H]1O` [deoxycoformycin], in the series on Candida albicans [1], the “Survival After 25 Days” value came to 30% and the “Survival After 15 Days” value was 25.0%. For the same compound, the “Days to Reach LD50” value in the series with Candida albicans [2] is given as 5 days.
